Laboratory results taken from patent publication US12297426B2, “DNA damage response signature guided rational design of CRISPR-based systems and therapies” (THE BROAD INSTITUTE, INC., priority 2019, dated 2025).

System: MCF7 cells
Assay: Drug response assay (CellTiter-Glo)
Type: cell-based, human
Conditions: Cas9-expressing vs parental MCF7 cells; 0 μM-100 μM, 72 h
Procedure: To further test the functional implications of Cas9-induced p53 activation, compared the response of parental and Cas9-expressing MCF7 cells to the MDM2-inhibitor nutlin-3 was compared. […] Without being bound by theory, these findings conclude that Cas9-induced p53 activation can affect both genetic and chemical perturbation assays.
MCF7 cells were seeded at a density of 9,000 cells per well in a 96-well plate. The next day, media was washed and fresh media containing nutlin-3 (Sigma-Aldrich) was added to the corresponding wells in a concentration range of 0 μM-100 μM. After 72 h of incubation, levels of ATP were measured as a surrogate marker for cell viability using the CellTiter-Glo assay (Promega). Luminescence measurements were acquired in a SpectraMax reader (ATC) using an integration time of 500 ms.

With `COc1ccc(C2=N[C@@H](c3ccc(Cl)cc3)[C@@H](c3ccc(Cl)cc3)N2C(=O)N2CCNC(=O)C2)c(OC(C)C)c1` [nutlin-3] the drug sensitivity was “modest, but significant, increase”.
